Test [1] concerns the target BIR3 domain of human XIAP (residues 252-350) (Homo sapiens (Human), UniProt P98170). Put plainly: XIAP in vitro competitive displacement binding assay (fluorescence polarization). The conditions noted are these: for IC50: read-out: IC50 or PI Xiap: IC50; for inhibition at 0.04 µM: 1 h, read-out: IC50 or PI Xiap: PI. (In general: Fluorescence polarisation rises when a labelled molecule tumbles more slowly, as on binding a larger partner.)

Test [2] has as its target BIR3 domain of human cIAP-1 (residues 267-363) (Homo sapiens (Human), UniProt Q13490). Put plainly: cIAP-1 in vitro competitive displacement binding assay (fluorescence polarization; Probe A AVPIK(5&6FAM)-amide or Probe B AbuRPFK(5&6FAM)-amide). The following applies: for inhibition at […] / inhibition at 0.01 µM: 3 h, read-out: IC50 or PI cIAP1: PI.
Test [3] deals with EVSA-T (human breast carcinoma). Put plainly: Anti-proliferative activity, Alamar Blue assay, EVSA-T. Type of test: cell-based. The following applies: Homo sapiens. (Resazurin is reduced to fluorescent resorufin, in cell work by metabolically active cells.)
Where [4] appears, read: EVSA-T, 72 hours, Alamar Blue, read-out: EVSA-T prolif (EC50).
Where [5] appears, read: Probe B AbuRPFK(5&6FAM)-amide, read-out: IC50 or PI cIAP1: IC50.
Where [6] appears, read: EVSA-T, 72 h, read-out: EVSA-T prolif (EC50).
The mark [7] stands for this setting: read-out: IC50 or PI cIAP1: IC50.

Structures are written as SMILES. Where a name gives a salt, the structure may show the parent alone. Read-outs that look alike come from different tables or passages of the source.

Consider `C[C@@H]1CN(CC(=O)N2CC(C)(C)c3cnc(Cc4ccc(F)cc4F)cc32)[C@@H](CN2CCOCC2=O)CN1` [Example 191, 4-{[(2R,5R)-1-(2-{6-[(2,4-Difluorophenyl)methyl]-3,3-dimethyl-1H,2H,3H-pyrrolo[3,2-c]pyridin-1-yl}-2-oxoethyl)-5-methylpiperazin-2-yl]methyl}morpholin-3-one hydrochloride], for which, in test [1], the IC50 (usually the concentration needed to halve the response being measured) was found to be 0.047 µM. The inhibition at […] in test [2] (Probe B, @ 0.012 μM) was 94%. Moreover, in test [3] (setting [4]), the concentration for a half-maximal effect (EC50) (as a rule, the concentration needed to bring the measured effect to its halfway point) came out at 0.017 µM.

For the compound `CC(C)CC(F)(F)c1cc2c(cn1)C(C)(C)CN2C(=O)CN1C[C@@H](C)NC[C@@H]1CN1CCCC1=O` [Example 225, 1-{[(2R,5R)-1-{2-[6-(1,1-Difluoro-3-methylbutyl)-3,3-dimethyl-1H,2H,3H-pyrrolo[3,2-c]pyridin-1-yl]-2-oxoethyl}-5-methylpiperazin-2-yl]methyl}pyrrolidin-2-one hydrochloride], the inhibition at 0.04 µM in test [1] (@ 0.04 μM) stood at 62%. Also, the inhibition at […] in test [2] (Probe B, @ 0.012 μM) is 72%. Also, the EC50 in test [3] (setting [4]) came out at 0.048 µM.

In the case of `COC[C@H]1CN[C@H](C)CN1CC(=O)N1CC(C)(C)c2cnc(Cc3ccc(F)cc3F)cc21` [Example 105, 1-{6-[(2,4-Difluorophenyl)methyl]-3,3-dimethyl-1H,2H,3H-pyrrolo[3,2-c]pyridin-1-yl}-2-[(2R,5R)-2-(methoxymethyl)-5-methylpiperazin-1-yl]ethan-1-one, hydrochloride salt], the IC50 in test [1] amounted to 0.19 µM. Besides, in test [2] (Probe B, @ 0.01 μM), the inhibition at 0.01 µM came out at 74%. In test [3] (setting [4]), the EC50 was found to be 0.055 µM.

`COC[C@H]1CN[C@H](C)CN1CC(=O)N1CC2(CN(C(C)=O)C2)c2ccc(Cl)cc21` [Example 71, 1-{1-Acetyl-6′-chloro-1′,2′-dihydrospiro[azetidine-3,3′-indole]-1′-yl}-2-[(2R,5R)-2-(methoxymethyl)-5-methylpiperazin-1-yl]ethan-1-one hydrochloride salt]: the values for the IC50 in test [1] and in test [2] (setting [5]) were 0.49 µM and 0.54 µM, respectively. For the same compound, the EC50 in test [3] (EVSA-T cell line, 72 hours, Alamar Blue, read-out: EC50, inhibition of cell growth) was below 10 µM; in test [3] (setting [4]) it was 7.7 µM.

On to `COC[C@H]1CN[C@H](C)CN1CC(=O)N1CC(C)(C)c2cnc(Cc3ccccc3Cl)cc21` [Example 78, 1-{6-[(2-Chlorophenyl)methyl]-3,3-dimethyl-1H,2H,3H-pyrrolo[3,2-c]pyridin-1-yl}-2-[(2R,5R)-2-(methoxy-methyl)-5-methyl-piperazin-1-yl]ethan-1-one hydrochloride salt], for which the half-maximal inhibitory concentration (IC50) came out at 0.53 µM in test [1] and 0.035 µM in test [2] (setting [5]). Also, the EC50 in test [3] (setting [4]) is 1.9 µM.

Consider `C[C@@H]1CN(CC(=O)N2CC(C)(C)c3cnc(Cc4ccccc4)cc32)[C@@H](C(=O)N2CCCCC2)CN1` [Example 133, 1-{6-Benzyl-3,3-dimethyl-1H,2H,3H-pyrrolo[3,2-c]pyridin-1-yl}-2-[(2R,5R)-5-methyl-2-[(piperidin-1-yl)carbonyl]piperazin-1-yl]ethan-1-one dihydrochloride], for which the IC50 in test [1] amounted to 0.091 µM. For the same compound, the inhibition at 0.01 µM in test [2] worked out at 71%. Further, the EC50 in test [3] (setting [6]) came to 0.11 µM.

As for `C[C@@H]1CN(CC(=O)N2CC(C)(C)c3cnc(C(F)(F)c4ccccc4)cc32)[C@@H](CN2CC[C@@H](F)C2)CN1` [Example 213, 1-{6-[Difluoro(phenyl)methyl]-3,3-dimethyl-1H,2H,3H-pyrrolo[3,2-c]pyridin-1-yl}-2-[(2R,5R)-2-{[(3R)-3-fluoropyrrolidin-1-yl]methyl]-5-methylpiperazin-1-yl]ethan-1-one dihydrochloride], in test [1], the inhibition at 0.04 µM was determined as 61%. Also, in test [2], the inhibition at […] was 82%. For the same compound, in test [3] (setting [4]), the EC50 turned out to be 0.006 µM.

For the compound `C[C@@H]1CN(CC(=O)N2CC(C)(C)c3cnc(Cc4ccccc4)cc32)[C@@H](C(=O)N2CCOCC2)CN1` [Example 101, 1-{6-Benzyl-3,3-dimethyl-1H,2H,3H-pyrrolo[3,2-c]pyridin-1-yl}-2-[(2R,5R)-5-methyl-2-[(morpholin-4-yl)carbonyl]piperazin-1-yl]ethan-1-one, hydrochloride salt], the concentration for half-maximal inhibition (IC50) in test [1] is 0.072 µM. The inhibition at 0.01 µM in test [2] (Probe B, @ 0.01 μM) amounted to 62%. Besides, the concentration giving a half-maximal response (EC50) in test [3] (setting [4]) came to 0.14 µM.

Consider `C[C@@H]1CN(CC(=O)N2CC(C)(C)c3ncc(C(F)(F)c4ccccc4)cc32)[C@@H](CN2CC[C@@H](F)C2)CN1` [Example 221, 1-{6-[Difluoro(phenyl)methyl]-3,3-dimethyl-1H,2H,3H-pyrrolo[3,2-b]pyridin-1-yl}-2-[(2R,5R)-2-{[(3R)-3-fluoropyrrolidin-1-yl]methyl}-5-methylpiperazin-1-yl]ethan-1-one dihydrochloride], for which the IC50 in test [1] turned out to be 0.073 µM. Further, the inhibition at […] in test [2] was 78%. Also, in test [3] (setting [6]), the EC50 was 0.054 µM.

Consider `C[C@@H]1CN(CC(=O)N2CC(C)(C)c3ncc(Cc4ccc(F)cc4)cc32)[C@@H](CN2C[C@@H](C)O[C@@H](C)C2)CN1` [Example 243, 2-[(2R,5R)-2-{[(2R,6S)-2,6-Dimethylmorpholin-4-yl]methyl}-5-methylpiperazin-1-yl]-1-{6-[(4-fluorophenyl)methyl]-3,3-dimethyl-1H,2H,3H-pyrrolo[3,2-b]pyridin-1-yl}ethan-1-one dihydrochloride], for which, in test [1], the 50% inhibitory concentration (IC50) amounted to 0.047 µM. Besides, the inhibition at […] in test [2] was determined as 100%. In addition, in test [3] (setting [6]), the EC50 is 0.025 µM.

Regarding `CCCC(F)(F)c1cc2c(cn1)C(C)(C)CN2C(=O)CN1C[C@@H](C)NC[C@@H]1CN1CCOCC1` [Example 239, 1-[6-(1,1-Difluorobutyl)-3,3-dimethyl-1H,2H,3H-pyrrolo[3,2-c]pyridin-1-yl]-2-[(2R,5R)-5-methyl-2-(morpholin-4-ylmethyl)piperazin-1-yl]ethan-1-one hydrochloride], the inhibition at 0.04 µM in test [1] (@ 0.04 μM) turned out to be 52%. In test [2] (Probe B, @ 0.012 μM), the inhibition at […] stood at 72%. For the same compound, the half-maximal effective concentration (EC50) in test [3] (setting [4]) is 0.032 µM.

Take `C[C@@H]1CN(CC(=O)N2CC(C)(C)c3cnc(Cc4ccc(F)cc4F)cc32)[C@@H](Cn2ncccc2=O)CN1` [Example 194, 2-{[(2R,5R)-1-(2-{6-[(2,4-Difluorophenyl)methyl]-3,3-dimethyl-1H,2H,3H-pyrrolo[3,2-c]pyridin-1-yl}-2-oxoethyl)-5-methylpiperazin-2-yl]methyl}-2,3-dihydropyridazin-3-one dihydrochloride]: in test [1], the concentration for half-maximal inhibition (IC50) worked out at 0.055 µM. For the same compound, in test [2], the inhibition at […] came to 99%. Besides, in test [3] (setting [6]), the EC50 came to 0.0098 µM.

Take `CC[C@H]1CN[C@H](C)CN1CC(=O)N1CC(C)(C)c2cnc(Cc3ccccc3)cc21` [Example 91, 1-{6-Benzyl-3,3-dimethyl-1H,2H,3H-pyrrolo[3,2-c]pyridin-1-yl}-2-[(2S,5R)-2-ethyl-5-methylpiperazin-1-yl]ethan-1-one, hydrochloride salt]: the concentration for half-maximal inhibition (IC50) in test [1] was 0.29 µM; in test [2] (setting [5]), 0.019 µM. Moreover, in test [3] (setting [4]), the concentration for a half-maximal effect (EC50) is 0.2 µM.

Take `C[C@@H]1CN(CC(=O)N2CC(C)(C)c3ncc(C(C)(F)F)cc32)[C@@H](CN2CCN(C)C(=O)C2)CN1` [Example 228, 4-{[(2R,5R)-1-{2-[6-(1,1-Difluoroethyl)-3,3-dimethyl-1H,2H,3H-pyrrolo[3,2-b]pyridin-1-yl]-2-oxoethyl}-5-methylpiperazin-2-yl]methyl}-1-methylpiperazin-2-one dihydrochloride]: the 50% inhibitory concentration (IC50) in test [1] was 0.099 µM; in test [2], below 1 µM; in test [2] (setting [7]), 0.024 µM. In addition, the EC50 in test [3] (setting [6]) is 0.68 µM.

`C[C@@H]1CN(CC(=O)N2CC(C)(C)c3ncc(Cc4ccc(F)cc4F)cc32)[C@@H](CN2CC[C@@H](F)C2)CN1` [Example 205, 1-{6-[(2,4-Difluorophenyl)methyl]-3,3-dimethyl-1H,2H,3H-pyrrolo[3,2-b]pyridin-1-yl}-2-[(2R,5R)-2-{[(3R)-3-fluoropyrrolidin-1-yl]methyl]-5-methylpiperazin-1-yl]ethan-1-one hydrochloride]: the IC50 in test [1] is 0.1 µM. The inhibition at […] in test [2] (Probe B, @ 0.012 μM) turned out to be 97%. Further, the EC50 in test [3] (setting [4]) came to 0.019 µM.

In the case of `C[C@@H]1CN(CC(=O)N2CC(C)(C)c3ncc(C(F)(F)C4CCC4)cc32)[C@@H](CN2CCCC2=O)CN1` [Example 226, 1-{[(2R,5R)-1-{2-[6-(Cyclobutyldifluoromethyl)-3,3-dimethyl-1H,2H,3H-pyrrolo[3,2-b]pyridin-1-yl]-2-oxoethyl}-5-methylpiperazin-2-yl]methyl}pyrrolidin-2-one dihydrochloride], the IC50 in test [1] is 0.046 µM; in test [2], below 1 µM; in test [2] (setting [7]), 0.021 µM. For the same compound, the EC50 in test [3] (setting [6]) is 0.4 µM.

`COC[C@H]1CN[C@H](C)CN1CC(=O)N1CC(C)(C)c2ccc(S(=O)(=O)NC(C)C)cc21` [Example 69, 1-[2-((2R,5R)-2-Methoxymethyl-5-methyl-piperazin-1-yl)-acetyl]-3,3-dimethyl-2,3-dihydro-1H-indole-6-sulfonic acid isopropylamide dihydrochloride salt]: the concentration for half-maximal inhibition (IC50) in test [1] stood at 0.28 µM; in test [2] (setting [7]), 1.4 µM. In test [3] (EVSA-T, read-out: EVSA-T prolif: % inhibition), the inhibition at 10 µM is 54%.

Turning to `C[C@@H]1CN(CC(=O)N2CC(C)(C)c3cnc(Cc4ccccc4)cc32)[C@@H](Cn2cccn2)CN1` [Example 112, 1-(6-Benzyl-3,3-dimethyl-2,3-dihydro-pyrrolo[3,2-c]pyridin-1-yl)-2-((2R,5R)-5-methyl-2-pyrazol-1-ylmethyl-piperazin-1-yl)-ethanone], in test [1], the concentration for half-maximal inhibition (IC50) worked out at 0.067 µM. Moreover, the inhibition at 0.01 µM in test [2] (Probe B, @ 0.01 μM) was found to be 69%. Also, in test [3] (setting [4]), the EC50 came to 0.095 µM.
